Results as given in patent EP2353599A1, “8-hydroxyquinolines as inhibitors of cathepsin B” (University of Ljubljana, priority 2010, dated 2011).

What was measured:
[1] = test system: MCF-10A neoT cell line; test: Millicell Matrigel in vitro tumour cell invasion assay; assay type: cell-based; settings: Homo sapiens, 24 h, read-out: inhibition of tumour invasion compared to DMSO control
Description: To assess the ability of 5-nitro-8-hydroxyquinoline to inhibit tumour cell invasion two independent experiments were used. First, an in vitro invasion model using Millicell Cell culture inserts (12 mm polycarbonate inserts with 12 µm pores) was performed. The bottom sides of 24-wells were coated with 100 µl of fibronectin from bovine plasma (25 µg/ml) and left in a laminar hood to dry. The upper side of Millicell inserts was coated with 100 µl of Matrigel (0.75 mg/ml in serum free medium) and incubated for 1 h at 37 °C. The inserts were then placed in with fibronectin coated wells. The upper compartments of the inserts were filled with 200 µl MCF-10A neoT cell suspension (7.5x10^5/ml) containing 5-nitro-8-hydroxyquinoline (10 µM) in serum free medium and the bottom compartments were filled 500 µl of medium containing 10 µM 5-nitro-8-hydroxyquinoline and 10 % fetal calf serum. After 24 h incubation the bottom sides of wells were washed with 500 µl of PBS and the cells that were attached were detached by 0.05 % trypsin and 0.02 % EDTA in PBS. […] After a 2 h incubation period the absorbance was measured at 490 nm. […] The percentage of cell invasion was calculated as the ratio between the invading cells and the total cell population.

[2] = test system: MCF-10A neoT cells; test: MTS cytotoxicity assay; assay type: cell-based; settings: 10 µM, 24 h incubation
Description: A MTS assay was used to assess the cytotoxic effect of 5-nitro-8-hydroxyquinoline on MCF-10A neoT cells. 5 × 10^4 cells in 100 µl of medium were added to a single well of a 96-microtiter plate to which a 100 µl of 5-nitro-8-hydroxyquinoline solution (twice the final concentration) was added. After 24 h incubation the cells were washed and the medium was replaced with 100 µl of fresh medium to which a 20 µl of MTS was added. After 2 h incubation the absorbance was measured at 490 nm. The experiment was performed in quadruplicates and DMSO was used as control.

[3] = target: T1, Cathepsin B (Homo sapiens, UniProt P07858); test: Reversibility of cathepsin B inhibition by enzyme kinetics (100-fold dilution of enzyme-inhibitor complex); assay type: biochemical; settings: for enzyme inhibition after dilution of the complex: inhibitor at 10-fold IC50, 100-fold dilution
Description: Reversibility of cathepsin B inhibition with 5-nitro-8-hydroxyquinoline was determined with three independent experiments. First, we used enzyme kinetics. Cathepsin B at 100-fold its final assay concentration (10 nM) and 5-nitro-8-hydroxyquinoline at 10-fold its IC50 were incubated for 5, 15 and 30 min at room temperature at 2 µl. The enzyme-inhibitor complex was then diluted 100-fold with 5 µM Z-RR-AMC to a final volume of 200 µl, initiating the reaction. Before the dilution of the enzyme-inhibitor complex the enzyme's activity is inhibited by 90 %. In the case of a reversible inhibitor after dilution this percentage is reduced to 9 %. In the case of an irreversible inhibitor the percentage stays unchanged (90 %).

[4] = target: cathepsin L (Homo sapiens, UniProt P07711); test: Selectivity: Ki against cathepsin L, substrate Z-FR-AMC; assay type: biochemical
Description: Activation buffer used with cathepsin L was 100 mM acetate buffer, pH 5.5 with 0.1 % PEG, 5 mM DTT and 1.5 mM EDTA and with cathepsin H was 100 mM phosphate buffer, pH 6.8 with 0.1 % PEG, 5 mM DTT and 1.5 mM EDTA. Table II. Ki values for 5-nitro-8-hydroxyquinoline determined against cathepsins B, L and H.

[5] = target: T1, Cathepsin B; test: Reversibility with active site probe DCG-04 (labelling, SDS-PAGE, blot); assay type: binding; settings: 0.1, 1, 10 and 50 µM inhibitor, 1 h, then 2 µM DCG-04
From the text: Second, the reversibility of 5-nitro-8-hydroxyquinoline was also studied with the active site probe DCG-04. DCG-04 is a derivative of an irreversible epoxysuccinic inhibitor of cysteine proteases E-64 with an additional biotin moiety which enables detection of covalently modified proteases with labelling intensity correlating with enzymatic activity (Greenbaum D, Medzihradszky KF, Burlingame A, Bogyo M: Epoxide electrophiles as activity-dependent cysteine protease profiling and discovery tools. Chem Biol 2000, 7: 569-81.). 1 µg of recombinant cathepsin B in 50 mM Tris, pH 5.5 containing 1 mM DTT, 5 mM MgCl2 and 250 mM sucrose was incubated with 0.1, 1, 10 in 50 µM 5-nitro-8-hydroxyquinoline (diluted from 10 mM DMSO stocks) for 1 h at room temperature. Samples were then labelled with 2 µM DCG-04 for an additional h at room temperature. After boiling in reducing sample buffer for 10 min samples were analyzed by 12.5 % SDS-PAGE and transferred to a nitrocellulose membrane. The latter was then blocked with 0.5 % Tween 20 in PBS overnight at 4 °C and incubated with 1 µg/ml streptavidin-horseradish peroxidase in 0.2 % Tween 20 in PBS for 1 h at room temperature. The membrane was washed five times with 0.2 % Tween 20 in PBS and the spots on the membrane were visualized with 0.5 mg/ml 3,3'-diaminobenzidine and 0.0005 % (v/v) H2O2 in 50 mM Tris, pH 7.5. […]

[6] = target: T1, Cathepsin B; test: Cathepsin B exopeptidase activity, enzyme kinetics with substrate Abz-GIVRAK(Dnp)-OH; assay type: biochemical
Description: The effect of 5-nitro-8-hydroxyquinoline on cathepsin B exopeptidase activity was assessed with an exopeptidase substrate Abz-GIVRAK(Dnp)-OH. 5 µl of Abz-GIVRAK(Dnp)-OH (final concentration 1, 3 and 6 µM) and 5 µl of 5-nitro-8-hydroxyquinoline at increasing concentrations were added to wells of a black microplate. 90 µl of human recombinant cathepsin B was then added to a final concentration of 0.25 nM in activation buffer (60 mM acetate buffer, pH 5.0 with 0.1 % PEG, 5 mM DTT and 1.5 mM EDTA). All assay mixtures contained a constant amount of DMSO, i.e. 5 %.
Formation of fluorescent degradation product was continuously monitored at 320 nm ± 20 nm excitation and 420 nm ± 10 nm emission wavelengths on Tecan Safire^2™ at 37°C. Mechanism and the constant of inhibition (Ki) of cathepsin B exopeptidase activity were determined using the graphical method according to Cornish-Bowden (Cornish-Bowden A: A Simple Graphical Method for Determining the Inhibition Constants of Mixed, Uncompetitive and Non-Competitive Inhibitors. Biochem J 1974, 137:143-4.) and using the SigmaPlot® 11, Enzyme Kinetics Module™ 1.3.

Sequence of cathepsin L (P07711 114-333, species assumed): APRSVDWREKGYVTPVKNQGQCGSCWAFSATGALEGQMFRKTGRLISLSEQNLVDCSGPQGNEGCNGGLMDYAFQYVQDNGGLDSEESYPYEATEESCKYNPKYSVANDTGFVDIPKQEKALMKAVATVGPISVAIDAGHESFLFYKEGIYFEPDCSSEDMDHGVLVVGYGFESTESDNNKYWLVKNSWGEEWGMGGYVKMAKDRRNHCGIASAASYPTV

SMILES: O=[N+]([O-])c1ccc(O)c2ncccc12 [Compound 1, 5-nitro-8-hydroxyquinoline]
- inhibition at 10 µM [1]: 40.7%
- cytotoxic effect (cell viability, MTS) [2]: non-toxic
- enzyme inhibition after dilution of the complex ([3]; 5 min incubation): 21.7 ± 2.2%
- enzyme inhibition after dilution of the complex ([3]; 15 min incubation): 25.2 ± 3.5%
- enzyme inhibition after dilution of the complex ([3]; 30 min incubation): 27.6 ± 3.2%
- calculated value of inhibition ([3]; expected inhibition after dilution considering the Hill coefficient): 15%
- Mechanism of inhibition [4]: competitive
- Ki ([4]; substrate Z-FR-AMC, pH 5.5): 175 ± 17.1 µM
- intensity of spots (DCG-04 labelling) versus DMSO control [5]: did not differ significantly from the DMSO control
- Mechanism of inhibition ([6]; cathepsin B exopeptidase activity): non-competitive
- Ki ([6]; exopeptidase activity, substrate Abz-GIVRAK(Dnp)-OH, pH 5.0, 37°C): 220 ± 13.3 µM
- inhibits endopeptidase activity more potently than exopeptidase activity ([6]; ratio of exopeptidase Ki to endopeptidase Ki): 5.8 times
